# Entries after “also recorded” stand apart in the source; their conditions may differ.
# Tests used:
# [1] = system: human primary endothelial cells; assay: BioMAP proliferation readout, endothelial cells; type: cell-based; conditions: 100 μM, 33 μM, 11 μM
# Description: The X-axis lists the quantitative protein-based biomarker readouts measured in each system. The Y-axis represents a log-transformed ratio of the biomarker readouts for the drug-treated sample (n=1) over vehicle controls (n≥6). The grey region around the Y-axis represents the 95% significance envelope generated from historical vehicle controls. Biomarker activities are annotated when two or more consecutive concentrations change in the same direction relative to vehicle controls, are outside of the significance envelope, and have at least one concentration with an effect size >20% (|log 10 ratio|>0.1). Biomarker key activities are described as modulated if these activities increase in some systems, but decrease in others. […] As summarized in Table 2 below, the compound was active with 35 annotated readouts. […]
# Human primary cells in BioMAP® systems are used at early passage (passage 4 or earlier) to minimize adaptation to cell culture conditions and preserve physiological signaling responses. […] Test agents prepared in either DMSO (small molecules; final concentration ≤0.1%) or PBS (biologics) are added at the indicated concentrations 1-hr before stimulation, and remain in culture for 24-hrs or as otherwise indicated (48-hrs, MyoF system; 72-hrs, BT system (soluble readouts); 168-hrs, BT system (secreted IgG)). […]
# [2] = system: HT-29 colorectal adenocarcinoma cell line; assay: BioMAP Oncology CRC panel (StroHT29 and VascHT29 systems); type: cell-based, human
# Description: The BioMAP® oncology system used in this Example is a coculture of primary human immune cells with primary tissue cells in the presence of the Colorectal Cancer (CRC) cells. In particular, The BioMAP® Oncology CRC panel models the interactions between the immune-stromal (fibroblasts) and immune-vascular (endothelial cells) environments in the context of colorectal cancer (HT-29 colorectal adenocarcinoma cell line). The interactions between tumor cells, stimulated immune cells (peripheral blood mononuclear cells [PBMC]), and the host stromal network (human neonatal dermal fibroblasts [HDFn]) are captured in the StroHT29 system. In parallel, the VascHT29 system captures the interactions between tumor cells, activated immune cells and the vascular tissue (human umbilical vein endothelial cells [HUVEC]). The biomarkers selected for the BioMAP® Colorectal Cancer (CRC) panel inform on activities related to inflammation, immune-function, tissue remodeling and metastasis in the context of a host tumor-microenvironment.
# A signature BioMAP® profile that is reflective of the changes in protein biomarker readouts within an individual system is generated for each test agent. Biomarker readouts selected for therapeutic and biological relevance are predictive for disease outcomes or specific drug effects, and have been validated using agents with known clinical efficacy. Each readout is measured quantitatively by immune-based receptors, cytokines, chemokines, matrix molecules and enzymes. In total, the 41 biomarker readouts in the CRC panel capture the biological changes that occur within the physiological context of each particular BioMAP® system.
# The BioMAP® CRC panel allows a focused in vitro evaluation of the impact of an agent in a model system that includes the hierarchical signaling networks that exist between interacting pathways and cells in a disease relevant setting. To represent the changes that are occurring in these complex systems, biomarker readouts with the ability to integrate and distinguish changes in different regulatory networks have been selected.
# Data analysis of the results was performed as described in detail above in Example 3.1. Briefly, biomarker activities are annotated when at least one concentration of the test agent is outside of the significance envelope with an effect size >20% compared to the vehicle control (|log 10 ratio|>0.1) and a p-value <0.01. Cytotoxic conditions are noted when total protein levels decrease by more than 50% (log 10 ratio of SRB <−0.3). Biomarker key activities are described as modulated if these activities increase in some systems, but decrease in others.
# [3] = 7.4 μM, 22 μM, 67 μM, Angiogenesis related activities
# [4] = 7.4 μM, 22 μM, 67 μM, Immune-related activities
# [5] = 7.4 μM, 22 μM, 67 μM, Inflammation related activities
# [6] = 7.4 μM, 22 μM, 67 μM, Matrix remodeling activities
# [7] = 7.4 μM, 22 μM, 67 μM, Tumor-related activities
smiles,measurement,setting,value
"C1=NC(c2cncc(C3CCC=N3)c2)CC1 (stereo not shown) [3,5-bis(3,4-dihydro-2H-pyrrol-2-yl)pyridine]",antiproliferative effect on human primary endothelial cells,[1],antiproliferative
same,Decreased activity: PAI-I,[2]; [3],decreased; also recorded: PAI-I
same,Decreased activity: tPA,[2]; [3],decreased and tPA
same,Decreased activity: uPA,[2]; [3],decreased and uPA
same,Increased activity: sVEGF,[2]; [3],increased; also recorded: SVEGF
same,Decreased Activity: sIL-6,[2]; [4],decreased
same,Decreased activity: CD40,[2]; [4],decreased and CD40
same,Decreased activity: CD69,[2]; [4],decreased and CD69
same,Decreased activity: sGranB,[2]; [4],decreased; also recorded: sGranB
same,Decreased activity: sIFNγ,[2]; [4],decreased; also recorded: SIFNG
same,Decreased activity: sIL-2,[2]; [4],decreased; also recorded: sIL-2
same,Decreased activity: sIL-10 (Table 8) / sIL-1β,[2]; [4],decreased
same,Decreased activity: sIL-17A,[2]; [4],decreased
same,Decreased activity: IP-10,[2]; [5],decreased; also recorded: IP-10
same,Decreased activity: MCP-1,[2]; [5],decreased; also recorded: MCP-1
same,Decreased activity: MIG,[2]; [5],decreased and MIG
same,Decreased activity: VCAM-1,[2]; [5],decreased; also recorded: VCAM-1
same,Decreased activity: Collagen I,[2]; [6],decreased; also recorded: Col-I
same,Decreased activity: Collagen III,[2]; [6],decreased and Col-
same,Decreased activity: Collagen IV,[2]; [6],decreased; also recorded: Col-IV
same,Decreased activity: MMP9,[2]; [6],decreased and MMP9
same,Decreased activity: TIMP2,[2]; [6],decreased; also recorded: TIMP2
same,Decreased activity: CEACAM5,[2]; [7],decreased; also recorded: CEACAM5
same,Decreased activity: Keratin 20,[2]; [7],decreased
same,cytotoxicity,[2]; at 200 μM,cytotoxic

# From patent US12358892B2, “Metalloenzyme inhibitors for treating cancers, Alzheimer's disease, hemochromatosis, and other disorders” (Miralogx LLC, priority 2020, dated 2025)
